Experimental data published in US11135228B2, “Cysteinyl-proresolving mediators that promote resolution of infection and organ protection” (THE BRIGHAM AND WOMEN'S HOSPITAL, priority 2014, dated 2021).
Entries after “also recorded” stand apart in the source; their conditions may differ.

Experiments:
Human neutrophils = experiment: Human neutrophil phagocytosis of fluorescently labeled E. coli; format: cell-based; details: 10 pM-100 nM, 15 min, then E. coli 45 min
Experimental: (§1) Leukocyte phagocytosis: Macrophages were prepared from peripheral blood mononuclear cells (PBMC) purchased from Children's Hospital Blood Bank, Boston, and phagocytosis was assessed as in (11). Briefly, macrophages (5×10^4 cells,/well) were incubated with SCI (10 pM-100 nM), SCII (10 pM-100 nM), MaR1 (10 pM-100 nM), or vehicle (0.1% EtOH in DPBS) for 15 min at 37° C., then fluorescent labeled apoptotic cells were added and cells incubated 45 min at 37° C. Extracellular fluorescence was quenched using Trypan blue (1:15 dilution) and phagocytosis assessed using an M3 SpectraMax plate reader. In select experiments, macrophages (5×10^4 cells/well) or neutrophils (1×10^5 cells/well) were obtained from human healthy volunteers' peripheral blood as in (11) in accordance with Partners Human Research Committee Protocol (#1999P001297), and incubated with H2DCFDA (5 μM, 30 min, 37° C.), then with SCI (10 pM-100 nM), SCI (10 pM-100 nM) or vehicle (0.1% EtOH in DPBS, 15 min, 37° C.) and E. coli (1:50 leukocytes to E. coli, 45 min, 37° C.) Intracellular reactive oxygen species were determined by measuring fluorescence using an M3 SpectraMax plate reader. […]

Djndk, Djmpka, DjAdb-Ba = experiment: Gene expression in regenerating planaria blastemas (real-time PCR); format: in vivo, Dugesia japonica; details: 100 nM, 2 days post injury
Experimental: Whole mount in situ hybridization, real-time PCR and dsRNA synthesis: Regenerating blastemas were obtained from planaria after surgical injury and placed in Trizol (Ambion). RNA was isolated following manufacturer's instructions and cDNA was synthesized essentially as in (16) using random hexamers, Oligo(dt)20 and Superscript III (Invitrogen), Relative quantitative analysis for each gene product was carried out using an ABI 7900ht fast real-time PCR machine (Applied Biosystems). DjGapdh—Forward: […] (SEQ ID NO. 1); Reverse: […] (SEQ ID NO. 2). Djsfpr-A—Forward: […] (SEQ ID NO. 3); Reverse: […] (SEQ ID NO. 4). Djndk—Forward: […] (SEQ ID NO. 5); Reverse: […] (SEQ ID NO. 6). DjmpkA—Forward: […] (SEQ ID NO. 7); Reverse: […] (SEQ ID NO. 8). DfAdb-Ba—Forward: […] (SEQ ID NO. 9); Reverse: […] (SEQ ID NO. 10). DjGst—Forward: […] (SEQ ID NO. 11); Reverse: […] (SEQ ID NO. 12). The constitutively transcribed housekeeping gene, GAPDH, was employed to normalized target gene expression levels as in (16).
Planaria regeneration: Planaria (Dugesia japonica; Dj) were kept in water (Poland Spring) at 18° C. […] Tissue regeneration was assessed as in (12). […] The extent of tissue regeneration during a 6-day period for D. japonica was determined using captured images of the regenerating blastemas at regular intervals (24 h). These images were analyzed using ImageJ software. […]

Human macrophages = experiment: Human macrophage intracellular reactive oxygen species (H2DCFDA); format: cell-based; details: 10 pM-100 nM, 15 min, then E. coli 45 min
Experimental: as §1

E. coli = experiment: Murine E. coli peritonitis: leukocyte counts, resolution indices, in vivo phagocytosis; set-up: species or system mouse; details: for leukocyte phagocytosis of E. coli in vivo: co-administration of SCI and SCII 50 ng each, i.p.; for resolution of infections in mice: co-administration of equal amounts of SCI and SCII
Experimental: Murine Peritonitis: Mouse experiments were conducted in accordance with guidelines from Harvard Medical Area Standing Committee on Animals (protocol no. 02570). Mice were inoculated with E. coli (serotype 06:K2:H1) as in (11) and peritoneal exudates were collected by lavaging the peritoneal cavity with 4 ml of PBS (without calcium and magnesium) at the indicated intervals. Leukocytes were enumerated by light microscopy using nuclear morphology staining with Turks solution and flow cytometry probing for CD11b-PerCP/Cy5.5 (eBioscience, clone: M1/70), F4/80-PE (eBioscience, BM8) and Ly6G-FITC (eBioscience, clone: 1A8) as in (11). For product isolation, 24 h peritoneal exudates were collected and 2 volumes of ice-cold methanol were added. Isolates were obtained as detailed in the lipid mediator metabotolipidomics section.
In select experiments 12 h after E. coli inoculation, mice were administered either 100 ng of SCI and SCII (50 ng/each per mouse) or vehicle (saline containing 0.1% ethanol (EtOH)) via i.p. injection. Peritoneal exudates were then collected and leukocyte counts determined as above. Assessment of leukocyte phagocytosis of E. coli in inflammatory exudates was conducted as in (11). Briefly cells were incubated with anti-CD11b-Per(T/Cy5.5 conjugated antibody; subsequently the cells were permeabilized using BD Cytofix/Cytoperm™ Fixation/Permeabilization Kit following manufacturer's instructions; cells were then incubated with a FITC conjugated anti-E. coli antibody (GTX40856; GeneTex) and phagocytosis assessed as mean fluorescence in the CD11b- positive cell population.
Resolution indices were calculated as in (11) where Ψmax=the maximal PMN numbers in the exudates; Tmax=the time point when PMN numbers reach maximum; R50=50% of maximal PMN numbers; T50=the time point when PMN numbers reduce to 50% of maximum; Ri (resolution interval)=T50−Tmax, the time period when 50% PMN are lost from the exudates.

Row | Molecule | neutrophil phagocytosis of E. coli (Human neutrophils) | genes involved in head regeneration (Djndk, Djmpka, DjAdb-Ba) | macrophage intracellular reactive oxygen species (Human macrophages) | leukocyte phagocytosis of E. coli in vivo (E. coli) | resolution of infections in mice (E. coli)
1 | 13-glutathionyl, 14-hydroxy-docosahexaenoic acid [SCI] | enhanced; also recorded: Stimulates human | upregulated | enhanced; also recorded: Stimulates human | Stimulates mouse | Promotes resolution of
2 | CCC=CCC=CCC(O)C(C=CC=CC=CCC=CCCC(=O)O)SCC(N)C(=O)NCC(=O)O (stereo not shown) [SCII, 13-cysteinylglycinyl, 14-hydroxy-docosahexaenoic acid] | enhanced; also recorded: Stimulates human | upregulated | enhanced | Stimulates mouse | Promotes resolution of
